Article PMC12136037, “Type II kinase inhibitors that target Parkinson’s disease–associated LRRK2” (Science Advances, 2025)

What was measured:
Format in all cases: binding
[1] = molecular target: T1, ~100 representative kinases (Homo sapiens, UniProt Q9NSY1); assay: DSF 100 kinase selectivity screen; settings: Protein BMP2K; average of three replicates;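 note: compound tested at 20 µM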
T1 construct: Recombinant protein kinase domains with a concentration of 2 μM
Protocol: (§1) Recombinant protein kinase domains with a concentration of 2 μM were mixed with a 20 μM compound solution in dimethyl sulfoxide (DMSO), 20 mM Hepes (pH 7.5), and 500 mM NaCl. SYPRO Orange (5000×, Invitrogen) was added as a fluorescence probe (1μl/ml). Subsequently, temperature-dependent protein unfolding profiles were measured using the QuantStudio 5 realtime PCR machine (Thermo Fisher Scientific, Waltham, MA, USA). […] The temperature was raised with a step rate of 3°C/min. […] Differences in melting temperature are given as ΔTm values in degrees Celsius. […]

[2] = molecular target: T2, ~100 representative kinases (Homo sapiens, UniProt O00444); assay: DSF 100 kinase selectivity screen; settings: protein PLK4; average of three replicates;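 note: compound tested at 20 µM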
T2 construct: Recombinant protein kinase domains with a concentration of 2 μM
T2 sequence (O00444 1-970): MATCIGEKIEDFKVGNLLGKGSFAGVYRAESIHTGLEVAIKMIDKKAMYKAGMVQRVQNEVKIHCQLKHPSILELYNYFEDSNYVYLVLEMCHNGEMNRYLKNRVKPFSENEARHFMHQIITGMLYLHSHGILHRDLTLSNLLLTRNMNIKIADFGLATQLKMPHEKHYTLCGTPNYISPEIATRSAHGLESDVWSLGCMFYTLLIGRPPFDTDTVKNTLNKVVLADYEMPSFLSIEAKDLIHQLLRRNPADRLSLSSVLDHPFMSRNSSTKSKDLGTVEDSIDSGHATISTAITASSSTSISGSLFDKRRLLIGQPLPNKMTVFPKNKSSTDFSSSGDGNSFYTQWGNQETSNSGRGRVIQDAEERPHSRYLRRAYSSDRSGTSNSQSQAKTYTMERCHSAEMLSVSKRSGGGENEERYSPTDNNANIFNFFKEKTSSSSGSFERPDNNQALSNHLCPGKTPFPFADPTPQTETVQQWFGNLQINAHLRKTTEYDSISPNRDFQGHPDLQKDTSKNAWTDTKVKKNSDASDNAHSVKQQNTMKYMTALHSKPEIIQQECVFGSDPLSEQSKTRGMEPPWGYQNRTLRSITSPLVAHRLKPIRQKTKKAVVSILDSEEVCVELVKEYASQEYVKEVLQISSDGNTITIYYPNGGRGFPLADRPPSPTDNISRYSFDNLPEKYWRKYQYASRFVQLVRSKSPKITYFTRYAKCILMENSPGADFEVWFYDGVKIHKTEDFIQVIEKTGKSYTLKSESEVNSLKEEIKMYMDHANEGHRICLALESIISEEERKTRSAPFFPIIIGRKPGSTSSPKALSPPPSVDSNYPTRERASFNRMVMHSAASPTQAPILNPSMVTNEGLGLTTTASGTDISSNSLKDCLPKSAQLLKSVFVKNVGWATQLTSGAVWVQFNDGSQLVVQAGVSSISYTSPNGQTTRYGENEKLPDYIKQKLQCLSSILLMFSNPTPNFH
Protocol: as §1

[3] = molecular target: T3, ~100 representative kinases (Homo sapiens, UniProt Q00532); assay: DSF 100 kinase selectivity screen; settings: Protein CDKL1; average of three replicates;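 note: compound tested at 20 µM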
T3 construct: Recombinant protein kinase domains with a concentration of 2 μM
Protocol: as §1

[4] = molecular target: T4, ~100 representative kinases (Homo sapiens, UniProt P19784); assay: DSF 100 kinase selectivity screen; settings: Protein CK2A2; average of three replicates;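 note: compound tested at 20 µM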
T4 construct: Recombinant protein kinase domains with a concentration of 2 μM
Protocol: as §1

[5] = molecular target: T5, ~100 representative kinases (Homo sapiens, UniProt P34947); assay: DSF 100 kinase selectivity screen; settings: protein GPRK5; average of three replicates;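 note: compound tested at 20 µM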
T5 construct: Recombinant protein kinase domains with a concentration of 2 μM
Protocol: as §1

[6] = molecular target: T6, ~100 representative kinases (Homo sapiens, UniProt P68400); assay: DSF 100 kinase selectivity screen; settings: Protein CK2A1; average of three replicates;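 note: compound tested at 20 µM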
T6 construct: Recombinant protein kinase domains with a concentration of 2 μM
Protocol: as §1

[7] = molecular target: T7, ~100 representative kinases (Homo sapiens, UniProt Q14680); assay: DSF 100 kinase selectivity screen; settings: protein MELK; average of three replicates
T7 construct: Recombinant protein kinase domains with a concentration of 2 μM
Protocol: as §1

[8] = molecular target: T8, ~100 representative kinases (Homo sapiens, UniProt P53779); assay: DSF 100 kinase selectivity screen; settings: protein MAPK10; average of three replicates
T8 construct: Recombinant protein kinase domains with a concentration of 2 μM
Protocol: as §1

[9] = molecular target: T9, ~100 representative kinases (Homo sapiens, UniProt P21802); assay: DSF 100 kinase selectivity screen; settings: protein FGFR2; average of three replicates
T9 construct: Recombinant protein kinase domains with a concentration of 2 μM
Protocol: as §1

[10] = molecular target: T10, ~100 representative kinases (Homo sapiens, UniProt Q96NX5); assay: DSF 100 kinase selectivity screen; settings: Protein CAMK1G; average of three replicates
T10 construct: Recombinant protein kinase domains with a concentration of 2 μM
Protocol: as §1

LRRK2^KW = molecular target: T11, LRRK2^KW (Homo sapiens, UniProt Q5S007); assay: DSF thermal stabilization of LRRK2^KW; settings: DSF, LRRK2^KW, 10 μM inhibitor
T11 construct: LRRK2 R1847 to E2527; His6-Z-tag (TEV cleavable) (N, cleaved yes); host or cells: Sf9 insect cells (baculovirus)
T11 sequence (Q5S007 1847-2527): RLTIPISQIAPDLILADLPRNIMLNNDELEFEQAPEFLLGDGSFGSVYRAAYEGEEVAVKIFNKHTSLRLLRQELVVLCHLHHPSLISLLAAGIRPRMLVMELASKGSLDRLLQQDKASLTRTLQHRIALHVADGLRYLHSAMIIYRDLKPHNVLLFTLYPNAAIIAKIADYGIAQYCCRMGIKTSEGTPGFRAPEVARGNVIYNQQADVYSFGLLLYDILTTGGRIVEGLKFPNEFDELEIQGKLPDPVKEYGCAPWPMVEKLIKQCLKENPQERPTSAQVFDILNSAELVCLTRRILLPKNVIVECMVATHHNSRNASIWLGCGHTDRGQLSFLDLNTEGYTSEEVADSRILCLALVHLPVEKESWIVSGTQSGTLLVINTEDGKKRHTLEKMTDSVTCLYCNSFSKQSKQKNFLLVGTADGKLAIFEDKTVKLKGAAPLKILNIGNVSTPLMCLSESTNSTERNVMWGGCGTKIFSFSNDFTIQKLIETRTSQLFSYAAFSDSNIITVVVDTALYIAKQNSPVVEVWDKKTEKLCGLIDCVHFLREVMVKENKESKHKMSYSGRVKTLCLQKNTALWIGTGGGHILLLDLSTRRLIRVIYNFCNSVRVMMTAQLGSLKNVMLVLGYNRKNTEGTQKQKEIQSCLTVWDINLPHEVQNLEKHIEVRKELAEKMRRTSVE
How it was run: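 DSF on 4 μM LRRK2^KW in 20 mM Hepes pH 7.4, 150 mM NaCl, 0.5 mM TCEP, 0.5% glycerol, 20 μM GDP, 2.5 mM MgCl2 with SYPRO Orange; inhibitor at 10 μM. Tm was taken as the minimum of the first derivative of fluorescence versus temperature, relative to control.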

T8 sequence (P53779 whole entry, the tested form may be a part): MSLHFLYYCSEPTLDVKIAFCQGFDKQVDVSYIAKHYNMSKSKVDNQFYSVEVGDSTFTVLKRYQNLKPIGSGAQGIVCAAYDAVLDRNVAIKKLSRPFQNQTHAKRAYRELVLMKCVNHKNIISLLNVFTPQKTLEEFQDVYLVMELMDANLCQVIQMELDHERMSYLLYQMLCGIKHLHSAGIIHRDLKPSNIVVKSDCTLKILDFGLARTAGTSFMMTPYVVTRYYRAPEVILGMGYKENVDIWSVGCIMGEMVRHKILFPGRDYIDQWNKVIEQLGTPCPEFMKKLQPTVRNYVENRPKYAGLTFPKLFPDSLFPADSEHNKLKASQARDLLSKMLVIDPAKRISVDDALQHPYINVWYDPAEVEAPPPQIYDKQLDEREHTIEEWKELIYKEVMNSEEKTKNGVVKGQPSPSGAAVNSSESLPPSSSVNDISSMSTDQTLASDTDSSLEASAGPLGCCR
T7 sequence (Q14680 whole entry, the tested form may be a part): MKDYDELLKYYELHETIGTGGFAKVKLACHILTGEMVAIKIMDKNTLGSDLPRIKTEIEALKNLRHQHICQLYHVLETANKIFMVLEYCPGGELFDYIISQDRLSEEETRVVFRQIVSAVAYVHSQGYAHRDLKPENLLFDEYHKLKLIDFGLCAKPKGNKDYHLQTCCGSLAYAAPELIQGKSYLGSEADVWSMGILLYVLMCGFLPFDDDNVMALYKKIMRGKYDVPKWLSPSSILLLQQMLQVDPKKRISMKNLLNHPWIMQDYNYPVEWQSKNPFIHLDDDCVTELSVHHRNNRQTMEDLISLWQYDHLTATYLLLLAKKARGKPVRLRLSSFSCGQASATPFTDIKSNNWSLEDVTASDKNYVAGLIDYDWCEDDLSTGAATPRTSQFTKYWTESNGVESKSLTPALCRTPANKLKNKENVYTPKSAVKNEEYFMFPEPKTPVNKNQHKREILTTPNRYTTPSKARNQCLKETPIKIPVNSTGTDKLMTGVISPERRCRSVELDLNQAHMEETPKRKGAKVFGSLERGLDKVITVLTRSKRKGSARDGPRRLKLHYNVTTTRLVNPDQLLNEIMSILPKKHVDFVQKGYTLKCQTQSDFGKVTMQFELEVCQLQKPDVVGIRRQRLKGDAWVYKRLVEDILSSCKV
T9 sequence (P21802 22-821): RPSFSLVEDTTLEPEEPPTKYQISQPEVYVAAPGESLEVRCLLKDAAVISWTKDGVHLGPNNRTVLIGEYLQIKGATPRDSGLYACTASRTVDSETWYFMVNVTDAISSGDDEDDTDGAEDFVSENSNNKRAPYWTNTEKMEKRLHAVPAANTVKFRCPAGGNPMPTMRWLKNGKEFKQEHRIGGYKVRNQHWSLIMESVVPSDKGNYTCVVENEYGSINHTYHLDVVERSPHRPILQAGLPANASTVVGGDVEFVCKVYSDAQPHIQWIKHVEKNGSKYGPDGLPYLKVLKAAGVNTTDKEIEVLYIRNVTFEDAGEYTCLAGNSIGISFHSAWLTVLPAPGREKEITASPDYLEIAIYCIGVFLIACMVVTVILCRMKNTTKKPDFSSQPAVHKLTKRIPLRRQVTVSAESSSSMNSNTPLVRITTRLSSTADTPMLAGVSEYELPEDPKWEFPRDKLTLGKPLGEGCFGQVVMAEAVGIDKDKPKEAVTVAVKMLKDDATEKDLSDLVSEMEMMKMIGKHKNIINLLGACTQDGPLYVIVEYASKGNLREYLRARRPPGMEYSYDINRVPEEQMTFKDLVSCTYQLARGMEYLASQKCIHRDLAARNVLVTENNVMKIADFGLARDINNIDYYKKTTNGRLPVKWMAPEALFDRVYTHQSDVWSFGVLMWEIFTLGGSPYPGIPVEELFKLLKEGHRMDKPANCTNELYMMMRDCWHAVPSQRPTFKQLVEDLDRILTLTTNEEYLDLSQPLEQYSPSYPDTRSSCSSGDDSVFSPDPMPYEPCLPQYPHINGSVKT
T3 sequence (Q00532 whole entry, the tested form may be a part): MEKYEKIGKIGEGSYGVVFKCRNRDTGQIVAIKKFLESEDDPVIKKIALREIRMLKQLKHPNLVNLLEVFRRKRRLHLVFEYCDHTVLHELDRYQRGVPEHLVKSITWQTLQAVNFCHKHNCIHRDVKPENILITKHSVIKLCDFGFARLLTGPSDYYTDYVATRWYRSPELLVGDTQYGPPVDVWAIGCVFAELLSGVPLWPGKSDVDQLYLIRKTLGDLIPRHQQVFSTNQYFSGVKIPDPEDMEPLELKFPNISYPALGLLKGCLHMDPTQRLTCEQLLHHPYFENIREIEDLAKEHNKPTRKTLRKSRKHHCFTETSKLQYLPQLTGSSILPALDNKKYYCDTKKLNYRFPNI
T6 sequence (P68400 whole entry, the tested form may be a part): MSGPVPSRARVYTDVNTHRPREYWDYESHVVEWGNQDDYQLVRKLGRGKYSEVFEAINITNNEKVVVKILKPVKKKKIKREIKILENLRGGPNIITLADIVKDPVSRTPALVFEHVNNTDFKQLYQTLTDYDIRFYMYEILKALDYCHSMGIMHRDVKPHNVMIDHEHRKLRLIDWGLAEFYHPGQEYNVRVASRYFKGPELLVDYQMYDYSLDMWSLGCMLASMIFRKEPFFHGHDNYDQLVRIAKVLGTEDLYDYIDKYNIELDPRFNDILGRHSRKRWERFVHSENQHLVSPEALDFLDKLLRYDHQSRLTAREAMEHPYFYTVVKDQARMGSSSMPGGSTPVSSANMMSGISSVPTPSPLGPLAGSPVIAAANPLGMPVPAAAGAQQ
T5 sequence (P34947 whole entry, the tested form may be a part): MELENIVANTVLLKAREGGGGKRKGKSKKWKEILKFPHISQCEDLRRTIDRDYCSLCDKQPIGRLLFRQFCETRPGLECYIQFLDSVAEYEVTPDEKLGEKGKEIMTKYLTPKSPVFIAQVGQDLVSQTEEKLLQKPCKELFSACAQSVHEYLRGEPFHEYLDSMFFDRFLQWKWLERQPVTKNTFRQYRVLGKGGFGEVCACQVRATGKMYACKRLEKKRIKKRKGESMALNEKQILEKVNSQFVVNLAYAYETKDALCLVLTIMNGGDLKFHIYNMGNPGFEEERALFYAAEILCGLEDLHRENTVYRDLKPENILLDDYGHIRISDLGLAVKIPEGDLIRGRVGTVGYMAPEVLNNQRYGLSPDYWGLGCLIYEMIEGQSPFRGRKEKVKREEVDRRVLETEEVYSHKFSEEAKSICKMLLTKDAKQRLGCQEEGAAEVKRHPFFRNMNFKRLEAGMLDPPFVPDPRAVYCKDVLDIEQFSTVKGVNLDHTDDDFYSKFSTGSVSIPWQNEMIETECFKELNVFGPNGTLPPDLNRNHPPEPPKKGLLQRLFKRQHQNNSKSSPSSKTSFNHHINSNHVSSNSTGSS
T10 sequence (Q96NX5 whole entry, the tested form may be a part): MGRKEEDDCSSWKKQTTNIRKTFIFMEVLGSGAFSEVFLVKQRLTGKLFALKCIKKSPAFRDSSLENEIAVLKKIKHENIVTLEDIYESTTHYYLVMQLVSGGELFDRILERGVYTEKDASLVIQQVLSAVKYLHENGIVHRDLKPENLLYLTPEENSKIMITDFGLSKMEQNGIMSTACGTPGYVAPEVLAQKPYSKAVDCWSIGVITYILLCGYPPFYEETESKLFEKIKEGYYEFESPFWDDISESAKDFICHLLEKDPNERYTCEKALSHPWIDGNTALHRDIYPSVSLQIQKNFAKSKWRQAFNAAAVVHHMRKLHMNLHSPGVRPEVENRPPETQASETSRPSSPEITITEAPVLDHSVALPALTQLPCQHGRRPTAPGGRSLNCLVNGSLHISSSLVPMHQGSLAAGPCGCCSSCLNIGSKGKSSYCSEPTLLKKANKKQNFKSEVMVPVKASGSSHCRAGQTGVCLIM
T1 sequence (Q9NSY1 whole entry, the tested form may be a part): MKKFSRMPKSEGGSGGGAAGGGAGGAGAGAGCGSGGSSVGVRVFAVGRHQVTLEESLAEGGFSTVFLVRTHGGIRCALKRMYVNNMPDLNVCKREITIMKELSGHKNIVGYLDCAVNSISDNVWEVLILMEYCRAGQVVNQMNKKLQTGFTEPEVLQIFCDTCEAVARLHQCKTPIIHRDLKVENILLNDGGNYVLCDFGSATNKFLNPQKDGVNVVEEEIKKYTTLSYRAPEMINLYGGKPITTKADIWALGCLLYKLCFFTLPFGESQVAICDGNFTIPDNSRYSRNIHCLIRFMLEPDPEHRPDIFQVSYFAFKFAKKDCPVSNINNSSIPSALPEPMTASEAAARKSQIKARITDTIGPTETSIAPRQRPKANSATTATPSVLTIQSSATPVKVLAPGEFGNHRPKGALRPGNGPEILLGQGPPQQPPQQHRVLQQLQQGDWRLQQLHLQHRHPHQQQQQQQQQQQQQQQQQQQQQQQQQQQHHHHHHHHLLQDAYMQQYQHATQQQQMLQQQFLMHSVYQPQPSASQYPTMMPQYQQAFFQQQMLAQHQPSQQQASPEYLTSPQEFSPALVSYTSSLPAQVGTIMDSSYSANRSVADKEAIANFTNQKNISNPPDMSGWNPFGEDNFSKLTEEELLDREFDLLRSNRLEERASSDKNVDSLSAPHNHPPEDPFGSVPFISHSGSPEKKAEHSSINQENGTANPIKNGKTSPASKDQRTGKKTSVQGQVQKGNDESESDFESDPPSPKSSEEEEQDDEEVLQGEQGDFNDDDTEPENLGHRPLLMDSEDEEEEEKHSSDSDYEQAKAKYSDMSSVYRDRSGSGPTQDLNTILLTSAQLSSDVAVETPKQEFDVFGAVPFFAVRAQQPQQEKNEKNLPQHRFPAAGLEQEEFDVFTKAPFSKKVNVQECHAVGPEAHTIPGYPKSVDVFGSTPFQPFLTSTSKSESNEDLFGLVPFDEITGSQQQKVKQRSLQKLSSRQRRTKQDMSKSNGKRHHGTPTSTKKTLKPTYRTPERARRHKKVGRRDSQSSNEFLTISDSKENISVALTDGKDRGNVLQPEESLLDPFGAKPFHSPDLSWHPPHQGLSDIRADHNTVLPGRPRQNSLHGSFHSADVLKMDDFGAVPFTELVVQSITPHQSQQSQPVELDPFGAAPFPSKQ

SMILES: Cc1ccc(C(=O)Nc2ccc(CN3CCN(C)CC3)c(C(F)(F)F)c2)cc1C#Cc1cnc2[nH]ncc2c1 [GZD-824, reference compound]
- dTm [1]: 4.51 K
- dTm [2]: 2.97 K
- dTm [3]: 4.34 K
- dTm [4]: 1.79 K
- dTm [5]: 0.29 K
- dTm [6]: -1.14 K
- dTm [7]: 5.45 K
- dTm [8]: 2.46 K
- dTm [9]: 13.32 K
- dTm [10]: 0.14 K
- ∆Tm (K) (LRRK2^KW): 21.2 ± 2.5 K
